Reference: patent US9693997B2, “Antiviral compounds” (priority 2013, dated 2017)
Where a name gives a salt, the structure may show the parent alone. Read-outs that look alike come from different tables or passages of the source.

Key:
[1] = test system: Pseudotyped HCV GT1b particles (HCVpp), entry into Huh7-high CD81 cells; assay: microbe, parasite or virus in culture; type: cell-based, HCV GT1b Con1 strain
[2] = test system: pseudotyped VSV G particles (VSVpp) in Huh7-high CD81 cells; assay: microbe, parasite or virus in culture; type: cell-based, vesicular stomatitis virus
[3] = Hepatitis C virus, GT1B, 72 h, read-out: HCVpp GT-1b (EC50, μM)
[4] = Vesicular stomatitis virus, 72 h, read-out: VSVpp (EC50, μM)

| Compound | EC50 ([1]; read-out: HCVpp GT-1b (EC50)) [µM] | EC50 ([2]; read-out: VSVpp (EC50)) [µM] | EC50 [1, 3] [µM] | EC50 [2, 4] [µM] |
| --- | --- | --- | --- | --- |
| 4′-(5-amino-1H-1,2,4-triazol-3-ylamino)-2′-chloro-3-methoxy-N-(piperidin-4-yl)-6′-(trifluoromethyl)biphenyl-4-sulfonamide hydrochloride [Compound 178] | 0.023 | > 10 | – | – |
| Nc1nc(Nc2cc(Cl)c(-c3ccc(OC[C@H]4CCCN4)cc3)c(C(F)(F)F)c2)n[nH]1 (stereo in doubt) [Compound 279, N*3*-[6-Chloro-4′-(pyrrolidin-2-ylmethoxy)-2-trifluoromethyl-biphenyl-4-yl]-1H-[1,2,4]triazole-3,5-diamine] | – | – | 0.193 | 37 |
| CC(C)(C)OC(=O)[C@@H]1CCCN1S(=O)(=O)c1ccc(-c2c(Cl)cc(Nc3n[nH]c(N)n3)cc2C(F)(F)F)cc1 [Compound 3, (S)-1-[4′-(5-Amino-1H-[1,2,4]triazol-3-ylamino)-2′-chloro-6′-trifluoromethyl-biphenyl-4-sulfonyl]-pyrrolidine-2-carboxylic acid tert-butyl ester] | – | – | 0.005 | 4.37 |
| Nc1nc(Nc2cc(Cl)c(-c3ccc(S(=O)(=O)C4CCN(CCC(F)(F)F)CC4)cc3)c(C(F)(F)F)c2)n[nH]1 [Compound 4, N*3*-{2-Chloro-6-trifluoromethyl-4′-[1-(3,3,3-trifluoro-propyl)-piperidine-4-sulfonyl]-biphenyl-4-yl}-1H-[1,2,4]triazole-3,5-diamine; hydrochloride] | – | – | 0.005 | > 10 |
| CC(C)(C)CCN1CCC(S(=O)(=O)c2ccc(-c3c(Cl)cc(Nc4n[nH]c(N)n4)cc3C(F)(F)F)cc2)CC1 [Compound 5, N*3*-{2-Chloro-4′-[1-(3,3-dimethyl-butyl)-piperidine-4-sulfonyl]-6-trifluoromethyl-biphenyl-4-yl}-1H-[1,2,4]triazole-3,5-diamine; hydrochloride] | – | – | 0.005 | > 10 |
| CC(C)(C)OC(=O)N1CCCC(S(=O)(=O)c2ccc(-c3c(Cl)cc(Nc4n[nH]c(N)n4)cc3C(F)(F)F)cc2)C1 (stereo not drawn) [Compound 6, 3-[4′-(5-Amino-1H-[1,2,4]triazol-3-ylamino)-2′-chloro-6′-trifluoromethyl-biphenyl-4-sulfonyl]-piperidine-1-carboxylic acid tert-butyl ester] | – | – | 0.008 | 2.56 |
| CC(C)(C)OC(=O)N1CCC(CS(=O)(=O)c2ccc(-c3c(Cl)cc(Nc4n[nH]c(N)n4)cc3C(F)(F)F)cc2)CC1 [Compound 7, 4-[4′-(5-Amino-1H-[1,2,4]triazol-3-ylamino)-2′-chloro-6′-trifluoromethyl-biphenyl-4-sulfonylmethyl]-piperidine-1-carboxylic acid tert-butyl ester] | – | – | 0.017 | 3.09 |
| CC(C)(C)NC(=O)c1ccc(-c2c(Cl)cc(Nc3n[nH]c(N)n3)cc2Cl)cc1 [Compound 8, 4′-(5-Amino-1H-[1,2,4]triazol-3-ylamino)-2′,6′-dichloro-biphenyl-4-carboxylic acid tert-butylamide] | – | – | 0.013 | > 10 |
| CCCCC(=O)Nc1ccc(-c2c(Cl)cc(Nc3n[nH]c(N)n3)cc2Cl)cc1 [Compound 9, Pentanoic acid [4′-(5-amino-1H-[1,2,4]triazol-3-ylamino)-2′,6′-dichloro-biphenyl-4-yl]-amide] | – | – | 0.014 | 5.05 |
| CC(C)(C)N1Cc2ccc(-c3c(Cl)cc(Nc4n[nH]c(N)n4)cc3C(F)(F)F)cc2S1(=O)=O [Compound 10, N*3*-[4-(2-tert-Butyl-1,1-dioxo-2,3-dihydro-1H-1lambda*6*-benzo[d]isothiazol-6-yl)-3-chloro-5-trifluoromethyl-phenyl]-1H-[1,2,4]triazole-3,5-diamine] | – | – | 0.015 | > 10 |
| Nc1nc(Nc2cc(Cl)c(-c3ccc(S(=O)(=O)C4CCCN(CCC(F)(F)F)C4)cc3)c(C(F)(F)F)c2)n[nH]1 (stereo not drawn) [Compound 11, N*3*-{2-Chloro-6-trifluoromethyl-4′-[1-(3,3,3-trifluoro-propyl)-piperidine-3-sulfonyl]-biphenyl-4-yl}-1H-[1,2,4]triazole-3,5-diamine; hydrochloride] | – | – | 0.017 | 6.78 |
| C[C@H](NS(C)(=O)=O)c1ccc(-c2c(Cl)cc(Nc3n[nH]c(N)n3)cc2C(F)(F)F)cc1 [Compound 13, N—{(S)-1-[4′-(5-Amino-1H-[1,2,4]triazol-3-ylamino)-2′-chloro-6′-trifluoromethyl-biphenyl-4-yl]-ethyl}-methanesulfonamide] | – | – | 0.027 | 21 |
| CS(=O)(=O)c1ccc(-c2c(Cl)cc(Nc3n[nH]c(N)n3)cc2Cl)cc1C(F)(F)F [Compound 14, N*3*-(2,6-Dichloro-4′-methanesulfonyl-3′-trifluoromethyl-biphenyl-4-yl)-1H-[1,2,4]triazole-3,5-diamine] | – | – | 0.052 | 0.12 |
| CS(=O)(=O)n1ccc2c(-c3c(Cl)cc(Nc4n[nH]c(N)n4)cc3Cl)cccc21 [Compound 15, N*3*-[3,5-Dichloro-4-(1-methanesulfonyl-1H-indol-4-yl)-phenyl]-1H-[1,2,4]triazole-3,5-diamine] | – | – | 0.05 | 0.23 |
| CC(C)(C)OC(=O)N1CCN(S(=O)(=O)c2ccc(-c3c(Cl)cc(Nc4n[nH]c(N)n4)cc3C(F)(F)F)cc2)CC1 [Compound 16, 4-[4′-(5-Amino-1H-[1,2,4]triazol-3-ylamino)-2′-chloro-6′-trifluoromethyl-biphenyl-4-sulfonyl]-piperazine-1-carboxylic acid tert-butyl ester] | – | – | 0.03 | > 10 |
| CC(C)(C)CCN1CCCC(S(=O)(=O)c2ccc(-c3c(Cl)cc(Nc4n[nH]c(N)n4)cc3C(F)(F)F)cc2)C1 (stereo not drawn) [Compound 17, N*3*-{2-Chloro-4′-[1-(3,3-dimethyl-butyl)-piperidine-3-sulfonyl]-6-trifluoromethyl-biphenyl-4-yl}-1H-[1,2,4]triazole-3,5-diamine; hydrochloride] | – | – | 0.043 | 4.9 |
| Cc1ccc(-c2c(Cl)cc(Nc3n[nH]c(N)n3)cc2C(F)(F)F)cc1S(=O)(=O)NC(C)(C)C [Compound 18, 4′-(5-Amino-1H-[1,2,4]triazol-3-ylamino)-2′-chloro-4-methyl-6′-trifluoromethyl-biphenyl-3-sulfonic acid tert-butylamide] | – | – | 0.032 | 3.47 |
| COc1ccc(-c2c(Cl)cc(Nc3n[nH]c(N)n3)cc2C(F)(F)F)cc1S(=O)(=O)C(C)C [Compound 19, N*3*-[2-Chloro-4′-methoxy-3′-(propane-2-sulfonyl)-6-trifluoromethyl-biphenyl-4-yl]-1H-[1,2,4]triazole-3,5-diamine] | – | – | 0.049 | > 10 |
| Nc1nc(Nc2cc(Cl)c(-c3ccc(S(=O)(=O)C4CCNCC4)cc3)c(C(F)(F)F)c2)n[nH]1 [Compound 20, N3-(2-chloro-4′-(piperidin-4-ylsulfonyl)-6-(trifluoromethyl)biphenyl-4-yl)-1H-1,2,4-triazole-3,5-diamine hydrochloride] | – | – | 0.053 | 3.46 |
| CC(C)(C)OC(=O)N1CCC(Oc2cccc(-c3c(Cl)cc(Nc4n[nH]c(N)n4)cc3C(F)(F)F)c2)CC1 [Compound 21, 4-[4′-(5-Amino-1H-[1,2,4]triazol-3-ylamino)-2′-chloro-6′-trifluoromethyl-biphenyl-3-yloxy]-piperidine-1-carboxylic acid tert-butyl ester] | – | – | 0.039 | > 10 |
| CN1CCN(S(=O)(=O)c2ccc(-c3c(Cl)cc(Nc4n[nH]c(N)n4)cc3C(F)(F)F)cc2)CC1 [Compound 22, N*3*-[2-Chloro-4′-(4-methyl-piperazine-1-sulfonyl)-6-trifluoromethyl-biphenyl-4-yl]-1H-[1,2,4]triazole-3,5-diamine] | – | – | 0.053 | 13.5 |
| C[C@@H](NS(C)(=O)=O)c1ccc(-c2c(Cl)cc(Nc3n[nH]c(N)n3)cc2C(F)(F)F)cc1 [Compound 24, N—{(R)-1-[4′-(5-Amino-1H-[1,2,4]triazol-3-ylamino)-2′-chloro-6′-trifluoromethyl-biphenyl-4-yl]-ethyl}-methanesulfonamide] | – | – | 0.058 | > 10 |
| Nc1nc(Nc2cc(Cl)c(-c3ccc(S(=O)(=O)CC4CCCNC4)cc3)c(C(F)(F)F)c2)n[nH]1 (stereo not drawn) [Compound 25, N*3*-[2-Chloro-4′-(piperidin-3-ylmethanesulfonyl)-6-trifluoromethyl-biphenyl-4-yl]-1H-[1,2,4]triazole-3,5-diamine; hydrochloride] | – | – | 0.059 | > 10 |
| Nc1nc(Nc2cc(Cl)c(-c3ccc(S(=O)(=O)NC[C@@H]4CCCN4)cc3)c(C(F)(F)F)c2)n[nH]1 [Compound 27, 4′-(5-Amino-1H-[1,2,4]triazol-3-ylamino)-2′-chloro-6′-trifluoromethyl-biphenyl-4-sulfonic acid ((S)-1-pyrrolidin-2-ylmethyl)-amide; hydrochloride] | – | – | 0.052 | 30.1 |
| COc1ccc(-c2c(Cl)cc(Nc3n[nH]c(N)n3)cc2C(F)(F)F)cc1S(=O)(=O)NC1CCOCC1 [Compound 168, 4′-(5-amino-1H-1,2,4-triazol-3-ylamino)-2′-chloro-4-methoxy-N-(tetrahydro-2H-pyran-4-yl)-6′-(trifluoromethyl)biphenyl-3-sulfonamide] | – | – | 0.011 | – |
| COc1ccc(-c2c(Cl)cc(Nc3n[nH]c(N)n3)cc2C(F)(F)F)cc1S(N)(=O)=O [Compound 180, 4′-(5-amino-1H-1,2,4-triazol-3-ylamino)-2′-chloro-4-methoxy-6′-(trifluoromethyl)biphenyl-3-sulfonamide] | – | – | 0.036 | – |
| COc1ccc(-c2c(Cl)cc(Nc3n[nH]c(N)n3)cc2C(F)(F)F)cc1S(=O)(=O)NC1CCNCC1 [Compound 222, 4′-(5-Amino-1H-[1,2,4]triazol-3-ylamino)-6′-chloro-4-methoxy-2′-trifluoromethyl-biphenyl-3-sulfonic acid piperidin-4-ylamide; compound with trifluoro-acetic acid] | 0.014 | – | – | – |
